Test results as given in patent publication US20150190461A1, “DOSING INSTRUCTIONS FOR ENDOTOXIN-BINDING LIPOPEPTIDES” (priority 2012, published 2015).

Columns and labels:
[1] = human, in vivo; cited from earlier work
[2] = tested on: blood cells; assay: Cytokine batch (batch test II): cytokine release by blood cells in LPS-spiked plasma; type: cell-based; conditions: PMB 250, 500, 1000 ng/ml; plasma spiked with LPS (E. coli); 4 hours of incubation
Method: Also to be studied is to what extent this endotoxin elimination has the consequence of inhibiting the release of cytokines (batch test II).
A blood donation was taken in 9 blood-donation tubes (9 ml each) and spiked with 5 IU heparin. The plasma was centrifuges, and the cell pellet as incubated on the rolling mixer. The plasma was spiked with LPS and used for batch test I: […]

For colistin, the serum half-life [1] is given as 6 to 7.4 h.

With polymyxin B [PMB] the “inhibition of cytokine release (TNF-alpha, IL-1beta, IL-6, IL-8) by the blood cells” value [2] was “strong inhibition” and the “inhibition of the key mediator TNF-alpha” value [2] was “especially pronounced”.
